Read-outs that look alike come from different tables or passages of the source. Where only a bound is given, the exact number is not on record here.

In general, IC50 refers to the point on the concentration scale where inhibition reaches its midpoint.

Common to all, as to assay type: cell-based
In assay [1] the target is T1, human NaV1.8 (Homo sapiens, UniProt Q9Y5Y9). As to the kind of experiment: Human NaV1.8 cell line SyncroPatch384PE automated patch clamp assay. Conditions: resting state block (P1 measurement), recombinant human NaV1.8 cells. Also noted: expressed in transfected cells; host or cells: HEK cells, stably transfected. The protocol: Compound Profiling on NaV1.8—Human NaV1.8 Cell Line—SyncroPatch384PE Assay
Compounds were tested on recombinant human NaV1.8 stably transfected HELK cells using the SyncroPatch384PE system, an automated patch clamp device. Cells were cultured at 37° C./5% CO2 in DMEM medium supplemented with GlutaMAX I, NEAA 1%, FBS 10% and seeded in T175 flasks. Cells were cultured at 30° C. one day prior to recording sodium currents. On the day of the recordings, cells were detached with 0.05% Trypsin-EDTA, resuspended in serum free DMEM medium and placed into the SyncroPatch384PE 6° C. pre-cooled cell hotel and shaken at 200 rpm. Intracellular solution (IC) contained, in mM: 10, CsCl; 110, CsF; 20, EGTA; 10, HEPES. Extracellular solution (EC) contained, in mM: 140, NaCl; 4, KCl; 5, Glucose; 10, HEPES; 2, CaCl2; 1, MgCl2. Washing solution contained, in mM: 40, NMDG; 100, NaCl; 4, KCl; 10, Glucose; 10, HEPES; 5, CaCl2; 1, MgCl2.
Compounds were tested in quadruplicates in 0.1% DMSO and 0.030% Pluronic Acid. Compounds were diluted 1:3.33 in EC solution to create a 10-point concentration response curve, spanning a final concentration range from 10-0.0002 μM in the assay plate. Compounds with low nM potency were retested using a lower concentration range (1-0.00002 μM). Each plate contained tetracaine and another tool compound as positive controls. Up to 7 compounds were tested on one plate. 150 μM tetracaine and 0.1% DMSO were used as high and low controls, respectively.
Whole cell patch clamp recordings were conducted according to Nanion's standard procedure for SyncroPatch384PE®. Cells were held at a holding potential of −120 mV. A depolarization step to 10 mV for 30 ms was applied (P1 measurement), followed by a hyperpolarization step to −100 mV for 100 ms. An inactivation step at −40 mV for 10 sec was applied before stepping to −100 mV for 20 ms, followed by a step to 10 mV for 30 ms (P2 measurement) and then back to −100 mV for 30 ms. Sweep interval was 15 sec with a sampling rate of 10 kHz. Following establishment of the whole-cell configuration in EC, two washing steps with reference buffer were performed to stabilize the baseline. Compounds were then applied by the SynchroPatch into each well and the current was recorded for five minutes in EC, followed by application of tetracaine to achieve full block at the end of the experiment. The potency of the compounds was assessed on two read-outs, resting state block (P1 measurement) or inactivated state block (P2 measurement) to obtain IC50 values. Values were normalized to high (tetracaine) and low (DMSO) controls.
In general terms: Patch clamp records ionic current or voltage across a cell membrane.

The target of assay [2] is T2, recombinant human NaV1.8 stably transfected HEK cells (Homo sapiens, UniProt Q9Y5Y9).
T2 construct: expressed in transfected cells; host or cells: HEK cells, stably transfected
In words: Compound profiling on NaV1.8, human NaV1.8 cell line, SyncroPatch384PE automated patch clamp assay (Example 115, third set of compounds, Table 27). The following applies: human NaV1.8 HEK cells, Table 27 (third set of compounds). Summed up: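 HEK cells, cultured at 30 °C the day before, recorded by automated whole-cell patch clamp (CsF intracellular, 140 mM Na+ external), holding −120 mV. 10-point curves at 10–0.0002 µM (or 1–0.00002 µM), 5 min exposure; IC50 for resting (P1) and inactivated-state block (P2, after 10 s at −40 mV), normalized to 150 µM tetracaine and 0.1% DMSO.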

Assay [3] has as its target T1, human NaV1.8. As to the kind of experiment: Activity of representative NaV1.8 inhibitors, determined using one or more of the methods of Example 122 (method not specified). Also noted: expressed in transfected cells; host or cells: HEK293 / HEK-293, stably expressing. Conditions: inhibition of the Nav1.8 channel; one or more of fluorescence, PatchXpress or IonFlux HT methods. The procedure:
The ability of pyridazine carboxamide derivatives exemplified above to inhibit the NaV1.8 channel was determined using one or more of the methods described below.
A HEK293 cell line stably expressing the human NaV1.8 (hNaV1.8) ion channel with β1/β2 subunits was constructed. The cell line is suitable for IC50 determination in fluorescence and electrophysiological based assays. It is also suitable to form mechanism of action pharmacology studies in electrophysiological assays. HEK293 NaV1.8 cells are grown as adherent monolayers in DMEM/high glucose media, 10% fetal bovine serum, Na pyruvate (2 mM), Hepes (10 mM) with selection agents G418 (400 mg/L) and puromycin (0.5 mg/L) at 37 degrees C., 10% CO2.
Activity of Representative NaV1.8 Inhibitors
The ability of representative pyridazine carboxamide derivatives exemplified above to inhibit the Nav1.8 channel was determined using one or more of the methods described immediately hereinabove.

T1 sequence (Q9Y5Y9 whole entry): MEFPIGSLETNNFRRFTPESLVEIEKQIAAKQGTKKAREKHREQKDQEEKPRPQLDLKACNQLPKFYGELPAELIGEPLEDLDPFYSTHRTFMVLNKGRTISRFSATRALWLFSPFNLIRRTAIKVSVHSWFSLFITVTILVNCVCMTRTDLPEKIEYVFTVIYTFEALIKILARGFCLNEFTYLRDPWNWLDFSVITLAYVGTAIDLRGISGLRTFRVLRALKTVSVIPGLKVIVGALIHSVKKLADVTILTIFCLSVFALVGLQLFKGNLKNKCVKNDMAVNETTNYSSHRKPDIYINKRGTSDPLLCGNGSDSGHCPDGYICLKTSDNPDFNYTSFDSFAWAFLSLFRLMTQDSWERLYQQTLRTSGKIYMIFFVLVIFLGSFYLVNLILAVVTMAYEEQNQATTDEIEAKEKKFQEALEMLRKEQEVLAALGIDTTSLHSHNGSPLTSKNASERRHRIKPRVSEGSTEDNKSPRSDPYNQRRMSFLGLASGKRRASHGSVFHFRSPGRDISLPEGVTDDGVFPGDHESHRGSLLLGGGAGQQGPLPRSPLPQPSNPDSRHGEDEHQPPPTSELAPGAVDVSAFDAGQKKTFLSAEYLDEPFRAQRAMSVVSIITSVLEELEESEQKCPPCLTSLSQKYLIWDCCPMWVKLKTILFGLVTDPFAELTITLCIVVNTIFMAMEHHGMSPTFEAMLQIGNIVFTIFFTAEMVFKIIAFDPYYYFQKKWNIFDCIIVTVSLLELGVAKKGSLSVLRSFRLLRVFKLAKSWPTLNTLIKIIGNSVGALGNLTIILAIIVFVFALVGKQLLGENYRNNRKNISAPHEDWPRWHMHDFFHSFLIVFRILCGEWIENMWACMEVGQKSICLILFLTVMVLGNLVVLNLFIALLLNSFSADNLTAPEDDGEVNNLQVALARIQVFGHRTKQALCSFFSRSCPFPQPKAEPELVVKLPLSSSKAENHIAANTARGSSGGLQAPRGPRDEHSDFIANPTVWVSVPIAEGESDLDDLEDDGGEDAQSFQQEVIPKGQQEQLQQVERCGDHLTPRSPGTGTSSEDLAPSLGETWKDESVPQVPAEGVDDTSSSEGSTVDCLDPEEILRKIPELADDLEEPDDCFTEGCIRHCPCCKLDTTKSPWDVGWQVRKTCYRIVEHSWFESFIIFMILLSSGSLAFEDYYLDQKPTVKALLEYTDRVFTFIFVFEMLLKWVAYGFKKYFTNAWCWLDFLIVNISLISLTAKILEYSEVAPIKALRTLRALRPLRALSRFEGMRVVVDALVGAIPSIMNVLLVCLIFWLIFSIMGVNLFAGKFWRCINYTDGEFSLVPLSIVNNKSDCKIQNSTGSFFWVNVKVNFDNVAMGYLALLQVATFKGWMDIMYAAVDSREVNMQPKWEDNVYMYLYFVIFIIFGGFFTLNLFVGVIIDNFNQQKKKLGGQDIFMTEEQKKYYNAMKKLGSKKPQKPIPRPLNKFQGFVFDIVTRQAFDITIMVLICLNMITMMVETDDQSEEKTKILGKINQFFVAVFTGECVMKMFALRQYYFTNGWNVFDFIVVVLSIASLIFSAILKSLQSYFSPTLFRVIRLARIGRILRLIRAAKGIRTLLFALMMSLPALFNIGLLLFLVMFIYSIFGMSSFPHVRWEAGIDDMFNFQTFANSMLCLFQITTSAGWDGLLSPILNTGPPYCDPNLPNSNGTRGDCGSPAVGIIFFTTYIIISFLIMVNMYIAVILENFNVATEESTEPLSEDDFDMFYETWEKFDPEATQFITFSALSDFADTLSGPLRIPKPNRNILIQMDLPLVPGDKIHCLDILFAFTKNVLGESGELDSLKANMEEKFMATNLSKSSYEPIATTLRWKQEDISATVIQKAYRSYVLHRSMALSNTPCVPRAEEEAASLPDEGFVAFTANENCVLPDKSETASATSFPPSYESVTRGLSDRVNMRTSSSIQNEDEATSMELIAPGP
T2 sequence (Q9Y5Y9 whole entry): as above

`COc1cc(F)ccc1Oc1nnc(C(F)(F)F)cc1C(=O)N[C@H]1CCCN(S(C)(=O)=O)C1` [Compound 7, (S)-3-(4-Fluoro-2-methoxyphenoxy)-N-(1-(methylsulfonyl)piperidin-3-yl)-6-(trifluoromethyl)pyridazine-4-carboxamide]: the IC50 at human NaV1.8 [1] was more than 5000 nM; in assay [2] (inactivated state block (P2 measurement), read-out: P2 IC50), 501 to 1000 nM; in assay [2] (resting state block (P1 measurement), read-out: P1 IC50) it was 1000 to 5000 nM.

In the case of `COc1cc(F)ccc1Oc1nnc(C(F)(F)F)cc1C(=O)NC1CCC(=O)NC1` (stereo not shown) [Compound 12], the IC50 on human NaV1.8 [1] is more than 5000 nM.

With `COc1cc(F)ccc1Oc1nnc(C(F)(F)F)cc1C(=O)Nc1cccc(S(C)(=N)=O)c1` (stereo not shown) [Example 1, 3-(4-fluoro-2-methoxy-phenoxy)-N-[3-(methylsulfonimidoyl)phenyl]-6-(trifluoromethyl)pyridazine-4-carboxamide], on human NaV1.8 [3], the IC50 is less than 500 nM.

For the molecule `Cc1cc(F)ccc1Oc1nnc(C(F)(F)F)cc1C(=O)Nc1cccc(S(C)(=N)=O)c1` (stereo not shown) [Example 2, 3-(4-fluoro-2-methyl-phenoxy)-N-[3-(methylsulfonimidoyl)phenyl]-6-(trifluoromethyl)pyridazine-4-carboxamide], on human NaV1.8 [3], the IC50 is less than 500 nM.

The molecule `CS(=O)(=O)c1cccc(NC(=O)c2cc(Cl)nnc2Oc2ccc(OC(F)(F)F)cc2)c1` [Example 3, 6-chloro-N-(3-methylsulfonylphenyl)-3-[4-(trifluoromethoxy)phenoxy]pyridazine-4-carboxamide] returned an IC50 at human NaV1.8 [3] of less than 500 nM.

The values above are taken from patent US20240336574A1 (LATIGO BIOTHERAPEUTICS, INC., priority 2021, published 2024).
